According to patent publication US10543249B2, “Pharmaceutical composition for a sustained release of lanreotide” (IPSEN PHARMA S.A.S., priority 2013, dated 2020):

Assay: Solubility of lanreotide acetate
Format: physicochemical
Text: The term “co-solvent” as used in the present application refers to a solvent or a mixture of solvents which allows the incorporation of the active ingredient in the composition to obtain the required dose in a suitable volume and matching the injectability criteria.
A composition according to the present invention comprises a co-solvent which allows obtaining the required injectability criteria of the pharmaceutical compositions. The co-solvent used in the composition according to the present invention is hydrosoluble. Moreover, the solubility, in the hydrosoluble co-solvent, of lanreotide or its salts used according to the present invention is equal or higher than 8% (w/v) at room temperature. For comparison, the solubility of lanreotide acetate is less than 4% in water, aqueous acetic acid (at the concentration of 0.1 or 1 mol/mL), aqueous NaCl (0.9%), or polysorbate (0.01%).

Measured: solubility of lanreotide acetate

CC(C)[C@@H]1NC(=O)[C@H](CCCCN)NC(=O)[C@@H](Cc2c[nH]c3ccccc23)NC(=O)[C@H](Cc2ccc(O)cc2)NC(=O)[C@@H](NC(=O)[C@H](N)Cc2ccc3ccccc3c2)CSSC[C@@H](C(=O)N[C@H](C(N)=O)[C@@H](C)O)NC1=O [lanreotide acetate]
less than 4%: in aqueous NaCl (0.9%) | in aqueous acetic acid (at the concentration of 0.1 or 1 mol/mL) | in polysorbate (0.01%) | in water
